Assay results from patent publication US10544099B2, “Inhibitors of indoleamine 2,3-dioxygenase and methods of their use” (BRISTOL-MYERS SQUIBB COMPANY, priority 2016, dated 2020).
pIC50: −log10 of the molar value.

Biological target: T1, human IDO1 (Homo sapiens, UniProt P14902)
T1 construct: expressed in transfected cells
Assay: HEK Human IDO-1 cell-based IDO inhibition assay
Conditions: human IDO1/HEK293 cells, 20 hours incubation, kynurenine absorbance at 490 nm; read-out: HEK Human IDO-1 Bio Activity
Experimental: HEK293 cells were transfected with a pCDNA-based mammalian expression vector harboring human IDO1 cDNA (NM 002164.2) by electroporation. They were cultured in medium (DMEM with 10% FBS) containing 1 mg/ml G418 for two weeks. Clones of HEK293 cells that stably expressed human IDO1 protein were selected and expanded for IDO inhibition assay.
The human IDO1/HEK293 cells were seeded at 10,000 cells per 50 μL per well with RPMI/phenol red free media contains 10% FBS in a 384-well black wall clear bottom tissue culture plate (Matrix Technologies LLC) 100 nL of certain concentration of compound was then added to each well using ECHO liquid handling systems. The cells were incubated for 20 hours in 37° C. incubator with 5% CO2.
The compound treatments were stopped by adding trichloroacetic acid (Sigma-Aldrich) to a final concentration at 0.2%. The cell plate was further incubated at 50° C. for 30 minute. The equal volume supernatant (20 μL) and 0.2% (w/v) Ehrlich reagent (4-dimethylaminobenzaldehyde, Sigma-Aldrich) in glacial acetic acid were mixed in a new clear bottom 384-well plate. This plate was then incubated at room temperature for 30 minute. The absorbance at 490 nm was measured on Envision plate reader.
Compound IC50 values were calculated using the counts of 500 nM of a reference standard treatment as one hundred percent inhibition, and counts of no compound but DMSO treatment as zero percent inhibition.

T1 sequence (P14902 whole entry): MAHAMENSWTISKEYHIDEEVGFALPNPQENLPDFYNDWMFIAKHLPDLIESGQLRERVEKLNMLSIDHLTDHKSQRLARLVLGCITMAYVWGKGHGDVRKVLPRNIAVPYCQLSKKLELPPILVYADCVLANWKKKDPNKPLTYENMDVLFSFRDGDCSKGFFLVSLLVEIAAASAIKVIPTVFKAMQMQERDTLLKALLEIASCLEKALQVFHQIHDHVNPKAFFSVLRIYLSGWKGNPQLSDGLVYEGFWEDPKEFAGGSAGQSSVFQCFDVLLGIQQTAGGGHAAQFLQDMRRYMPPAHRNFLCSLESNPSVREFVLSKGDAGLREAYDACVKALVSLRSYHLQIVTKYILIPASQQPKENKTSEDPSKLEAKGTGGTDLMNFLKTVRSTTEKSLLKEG

SMILES	pIC50
CC(NC(=O)Nc1ccc(Cl)cc1)C1CCN(c2ccnc3ccc(F)cc23)CC1 (racemic) [Example 1, (±)-1-(4-Chlorophenyl)-3-(1-(1-(6-fluoroquinolin-4-yl)piperidin-4-yl)ethyl)urea]	> 5.70
O=C(Nc1ccc(Cl)cc1)NC1CC12CCC(c1ccnc3ccc(F)cc13)CC2 (racemic) [Example 2, (±)-1-(4-chlorophenyl)-3-(6-(6-fluoroquinolin-4-yl)spiro [2.5]octan-1-yl)urea]	> 5.70
Cc1ccc(OC(=O)N[C@H](C)[C@H]2CC[C@@H](c3ccnc4ccc(F)cc43)CC2)cc1 [Example 9]	> 6.60
C[C@@H](NC(=O)Oc1ccc(F)cc1)[C@H]1CC[C@@H](c2ccnc3ccc(F)cc32)CC1 [Example 10, 4-fluorophenyl (R)-1-((1s,4S)-4-(6-fluoroquinolin-4-yl)cyclohexyl)ethylcarbamate]	> 6.60
COc1ccc(OC(=O)N[C@H](C)[C@H]2CC[C@@H](c3ccnc4ccc(F)cc43)CC2)cc1 [Example 11, 4-methoxyphenyl (R)-1-((1s,4S)-4-(6-fluoroquinolin-4-yl)cyclohexyl)ethylcarbamate]	> 7.30

Next, values leading:

pIC50	SMILES
> 7.30	CC[C@@H](NC(=O)Nc1ccc(Cl)cc1)[C@H]1CC[C@H](Oc2ccnc3ccccc23)CC1 (racemic) [Example 3, (±)-1-(4-chlorophenyl)-3-((R)-1-((trans)-4-(quinolin-4-yloxy)cyclohexyl)propyl)urea]
> 7.30	Cc1ccc(NC(=O)N[C@H](C)[C@H]2CC[C@@H](c3ccnc4ccc(F)cc43)CC2)cc1 [Example 4, 1-((R)-1-((1s,4s)-4-(6-Fluoroquinolin-4-yl)cyclohexyl)ethyl)-3-p-tolylurea]
> 7.30	C[C@@H](NC(=O)Nc1ccc(Cl)cc1)[C@H]1CC[C@@H](c2ccnc3ccc(F)cc32)CC1 [Example 5, 1-(4-chlorophenyl)-3-((R)-1-((1s,4S)-4-(6-fluoroquinolin-4-yl)cyclohexyl)ethyl)urea]
> 7.30	CCOc1ccc(NC(=O)N[C@H](C)[C@H]2CC[C@@H](c3ccnc4ccc(F)cc43)CC2)cc1 [Example 6, 1-(4-ethoxyphenyl)-3-((R)-1-((1s,4S)-4-(6-fluoroquinolin-4-yl)cyclohexyl)ethyl)urea]
> 7.30	Cc1ccc(NC(=O)N[C@H](C)[C@H]2CC[C@@H](c3ccnc4ccc(F)cc43)CC2)cc1Cl [Example 7, 1-(3-chloro-4-methylphenyl)-3-((R)-1-((1s,4S)-4-(6-fluoroquinolin-4-yl)cyclohexyl)ethyl)urea]
> 7.30	C[C@@H](NC(=O)Nc1ccc(F)cc1)[C@H]1CC[C@@H](c2ccnc3ccc(F)cc32)CC1 [Example 8, 1-(4-fluorophenyl)-3-((R)-1-((1s,4S)-4-(6-fluoroquinolin-4-yl)cyclohexyl)ethyl)urea]
